# Results published in publication PMC12396409, “Screening and hit evaluation of a microbial metabolite library against the pathogenic Plasmodium falciparum and Toxoplasma gondii parasites” (International Journal for Parasitology: Drugs and Drug …, 2025).
# Read-outs that look alike come from different tables or passages of the source.
# Tests used:
# [1] = system: P. falciparum 3D7 parasites; experiment: P. falciparum growth inhibition assay, 1-cycle (72 h treatment), SYBR DNA staining (library screen at 2 μg/mL and dose-response); format: cell-based, Plasmodium falciparum; details: for activity at 2 µg/mL: Plasmodium falciparum
# [2] = system: P. falciparum 3D7 parasites; experiment: P. falciparum growth inhibition assay, 2-cycle (120 h treatment), delayed-death screen and dose-response; format: cell-based, Plasmodium falciparum; details: for activity at 2 µg/mL: Plasmodium falciparum
# [3] = system: T. gondii RH strain (RH-Tub-eYFP) tachyzoites; experiment: microbe, parasite or virus in culture; format: cell-based, Toxoplasma gondii; details: 72 h; for percent parasite growth at 2 µg/mL: Toxoplasma gondii
# [4] = P. falciparum 3D7, 72 h, library screen at 2 μg/mL, % growth, replicate 1
# [5] = P. falciparum 3D7, 72 h, library screen at 2 μg/mL, % growth, replicate 2
# [6] = P. falciparum 3D7, 120 h, library screen at 2 μg/mL, % growth, replicate 1
# [7] = P. falciparum 3D7, 120 h, library screen at 2 μg/mL, % growth, replicate 2
# [8] = T. gondii RH, library screen at 2 μg/mL, % growth, replicate 1
# [9] = T. gondii RH, library screen at 2 μg/mL, % growth, replicate 2
# [10] = P. falciparum 3D7, 72 h, parasite screen at 2 μg/mL, % growth, replicate 1
# [11] = P. falciparum 3D7, 72 h, parasite screen at 2 μg/mL, % growth, replicate 2
# [12] = P. falciparum 3D7, 120 h, parasite screen at 2 μg/mL, % growth, replicate 1
# [13] = P. falciparum 3D7, 120 h, parasite screen at 2 μg/mL, % growth, replicate 2
# [14] = T. gondii, parasite screen at 2 μg/mL, % growth, replicate 1
# [15] = T. gondii, parasite screen at 2 μg/mL, % growth, replicate 2
# [16] = P. falciparum, 72 h, parasite screen 2 μg/mL, % growth, replicate 1
# [17] = P. falciparum, 72 h, parasite screen 2 μg/mL, % growth, replicate 2
# [18] = P. falciparum, 120 h, parasite screen 2 μg/mL, % growth, replicate 1
# [19] = P. falciparum, 120 h, parasite screen 2 μg/mL, % growth, replicate 2
# [20] = T. gondii, parasite screen 2 μg/mL, % growth, replicate 1
# [21] = T. gondii, parasite screen 2 μg/mL, % growth, replicate 2
smiles,measurement,setting,value
COC(=O)C1=COC(C)C2CN3CCc4c([nH]c5cc(OC)c(OC)cc45)C3CC12 (centres unmarked) [BIA-I1957],Pf_72h_%Growth_Rep1,[1]; [4],25.00%
same,Pf_72h_%Growth_Rep2,[1]; [5],24.20%
same,Pf_120h_%Growth_Rep1,[2]; [6],15.82%
same,Pf_120h_%Growth_Rep2,[2]; [7],-7.23%
same,Tg_72h_%Growth_Rep1,[3]; [8],168.01%
same,Tg_72h_%Growth_Rep2,[3]; [9],105.99%
C[C@@H]1C[C@H]2CC[C@H](O2)[C@H](C)C(=O)O[C@@H](C)C[C@@H]2CC[C@@H](O2)[C@@H](C)C(=O)O[C@H](C)C[C@H]2CC[C@@H](O2)[C@H](C)C(=O)O[C@@H](C)C[C@@H]2CC[C@@H](O2)[C@@H](C)C(=O)O1 [BIA-N1270],Pf_72h_%Growth_Rep1,[1]; [10],6.60%
same,Pf_72h_%Growth_Rep2,[1]; [11],4.15%
same,Pf_120h_%Growth_Rep1,[2]; [12],46.69%
same,Pf_120h_%Growth_Rep2,[2]; [13],11.45%
same,Tg_72h_%Growth_Rep1,[3]; [14],4.95%
same,Tg_72h_%Growth_Rep2,[3]; [15],0.97%
CC(=O)N[C@H]1[C@H](O[C@@H]2c3ccc(c(Cl)c3)Oc3cc4cc(c3O)Oc3ccc(cc3Cl)C[C@H]3NC(=O)[C@H](N)c5ccc(O)c(c5)Oc5cc(O)cc(c5)[C@H](NC3=O)C(=O)N[C@H]4C(=O)N[C@H]3C(=O)N[C@@H]2C(=O)N[C@H](C(=O)O)c2cc(O)cc(O[C@H]4O[C@H](CO)[C@@H](O)[C@H](O)[C@@H]4O)c2-c2cc3ccc2O)O[C@H](CO)[C@@H](O)[C@@H]1O [Teicoplanin A3-1],Pf_72h_%Growth_Rep1,"[1]; P. falciparum, 72 h, screen at 2 μg/mL, replicate 1",83.89%
same,Pf_72h_%Growth_Rep2,"[1]; P. falciparum, 72 h, screen at 2 μg/mL, replicate 2",89.40%
same,Pf_120h_%Growth_Rep1,"[2]; P. falciparum, 120 h, screen at 2 μg/mL, replicate 1",162.68%
same,Pf_120h_%Growth_Rep2,"[2]; P. falciparum, 120 h, screen at 2 μg/mL, replicate 2",89.82%
same,Tg_72h_%Growth_Rep1,"[3]; T. gondii, screen at 2 μg/mL, replicate 1",92.73%
same,Tg_72h_%Growth_Rep2,"[3]; T. gondii, screen at 2 μg/mL, replicate 2",87.18%
CCCCCCCCCCCCCCCCCC(=O)N[C@H]1CCOC1=O [BIA-O1501],Pf_72h_%Growth_Rep1,[1]; [10],84.33%
same,Pf_72h_%Growth_Rep2,[1]; [11],54.35%
same,Pf_120h_%Growth_Rep1,[2]; [12],92.72%
same,Pf_120h_%Growth_Rep2,[2]; [13],140.11%
same,Tg_72h_%Growth_Rep1,[3]; [14],147.08%
same,Tg_72h_%Growth_Rep2,[3]; [15],83.28%
CC[C@H]1CCC[C@H](O)[C@@H](C)C(=O)C2=C[C@@H]3[C@@H](C=C[C@@H]4C[C@@H](O)C[C@@H]34)[C@@H]2CC(=O)O1 [Spinosyn A aglycone],IC50,"[1]; 3D7, 72 h treatment, mean ± S.D., n ≥ 3, read-out: IC50 (μM), P. falciparum",> 1 µM
same,Pf_72h_%Growth_Rep1,[1]; [16],91.52%
same,Pf_72h_%Growth_Rep2,[1]; [17],38.04%
same,Screen (P. falciparum),"[1]; library screen at 2 μg/mL, 3D7, 72 h, DD from the 120 h timepoint",I
same,Pf_120h_%Growth_Rep1,[2]; [18],95.52%
same,Pf_120h_%Growth_Rep2,[2]; [19],13.75%
same,Tg_72h_%Growth_Rep1,[3]; [20],107.96%
same,Tg_72h_%Growth_Rep2,[3]; [21],78.11%
C/C(=C\c1csc(C)n1)[C@@H]1C[C@@H]2O[C@@H]2CCC[C@H](C)[C@H](O)[C@@H](C)C(=O)C(C)(C)[C@@H](O)CC(=O)O1 [Epothilone A],activity at 2 µg/mL,"[1]; 3D7, 72 h, library screen at 2 μg/mL, 72 h, % growth, replicate 1, read-out: Pf_72h_%Growth_Rep1",5.34%
same,activity at 2 µg/mL,"[1]; 3D7, 72 h, library screen at 2 μg/mL, 72 h, % growth, replicate 2, read-out: Pf_72h_%Growth_Rep2",6.86%
same,activity at 2 µg/mL,"[2]; 3D7, 120 h, library screen at 2 μg/mL, 120 h, % growth, replicate 1, read-out: Pf_120h_%Growth_Rep1",-6.26%
same,activity at 2 µg/mL,"[2]; 3D7, 120 h, library screen at 2 μg/mL, 120 h, % growth, replicate 2, read-out: Pf_120h_%Growth_Rep2",10.7%
same,percent parasite growth at 2 µg/mL,"[3]; library screen at 2 μg/mL, % growth, replicate 1, read-out: Tg_72h_%Growth_Rep1",2.49%
same,percent parasite growth at 2 µg/mL,"[3]; library screen at 2 μg/mL, % growth, replicate 2, read-out: Tg_72h_%Growth_Rep2",2.65%
Nc1cc2nc3ccccc3oc-2cc1=O [Questiomycin A],Pf_72h_%Growth_Rep1,[1]; [16],72.04%
same,Pf_72h_%Growth_Rep2,[1]; [17],68.55%
same,Pf_120h_%Growth_Rep1,[2]; [18],44.88%
same,Pf_120h_%Growth_Rep2,[2]; [19],66.03%
same,Tg_72h_%Growth_Rep1,[3]; [20],83.12%
same,Tg_72h_%Growth_Rep2,[3]; [21],77.23%
Cc1cc(OC(=O)c2c(C)cc(O)cc2O)cc(O)c1C(=O)O [BIA-L1669],Pf_72h_%Growth_Rep1,[1]; [4],74.56%
same,Pf_72h_%Growth_Rep2,[1]; [5],54.17%
same,Pf_120h_%Growth_Rep1,[2]; [6],65.54%
same,Pf_120h_%Growth_Rep2,[2]; [7],115.03%
same,Tg_72h_%Growth_Rep1,[3]; [8],166.09%
same,Tg_72h_%Growth_Rep2,[3]; [9],102.01%
CO[C@H]1C[C@@H]2CC[C@@H](C)[C@@](O)(O2)C(=O)C(=O)N2CCCC[C@H]2C(=O)O[C@H]([C@H](C)C[C@@H]2CC[C@H](n3cnnn3)[C@H](OC)C2)CC(=O)[C@H](C)/C=C(\C)[C@@H](O)[C@@H](OC)C(=O)[C@H](C)C[C@H](C)/C=C/C=C/C=C/1C [Zotarolimus],activity at 2 µg/mL,"[1]; 3D7, P. falciparum, 72 h, screen at 2 μg/mL, replicate 1, read-out: Pf_72h_%Growth_Rep1",75.7%
same,activity at 2 µg/mL,"[1]; 3D7, P. falciparum, 72 h, screen at 2 μg/mL, replicate 2, read-out: Pf_72h_%Growth_Rep2",88.3%
same,activity at 2 µg/mL,"[2]; 3D7, P. falciparum, 120 h, screen at 2 μg/mL, replicate 1, read-out: Pf_120h_%Growth_Rep1",97.5%
same,activity at 2 µg/mL,"[2]; 3D7, P. falciparum, 120 h, screen at 2 μg/mL, replicate 2, read-out: Pf_120h_%Growth_Rep2",77.1%
same,percent parasite growth at 2 µg/mL,"[3]; T. gondii, screen at 2 μg/mL, replicate 1, read-out: Tg_72h_%Growth_Rep1",120%
same,percent parasite growth at 2 µg/mL,"[3]; T. gondii, screen at 2 μg/mL, replicate 2, read-out: Tg_72h_%Growth_Rep2",77.8%
